Tested on: E. coli 31
Test: In vitro antibacterial activity (MIC), two-fold agar-plate dilution method
Type: cell-based
Conditions: Escherichia coli; test strain E. coli 31; heart infusion agar; incubation at 37°C for 20 hours; inoculum 10^8 viable cells per ml
Protocol: In vitro antibacterial activity was determined by the two-fold agar-plate dilution method as described below. One loopful of an overnight culture of each test strain in Trypticase-soy broth (10^8 viable cells per ml) was streaked on heart infusion agar (HI-agar) containing graded concentrations of representative test compound, and the minimal inhibitory concentration (MIC) was expressed in terms of µg/mℓ after incubation at 37°C for 20 hours.

- MIC: ≤ 0.025 µg/mL
Structure (SMILES): CON=C(C(=O)NC1C(=O)N2C(C(=O)[O-])=C(C[n+]3ccc4n3CCN4)CSC12)c1csc(N)n1 (stereo not shown) [(1)]

— EP0332156B1, “Cephem compounds and processes for preparation thereof” (FUJISAWA PHARMACEUTICAL CO., LTD., priority 1988, dated 1989)
